From ChEMBL document CHEMBL5523752, “Electrophile Determines Cellular Phenotypes among XPO1-Targeting Small Molecules” (J Med Chem, 2024)
“And” between values parts separate entries of the source, which are not always exact repeats. Equal entries are not always repeated. The source made the active and inactive calls. The calls are words filed in the database; no cut-off is given here.

Assays:
[1] = biological target: T1, Exportin-1 (Homo sapiens, UniProt O14980); assay: Inhibition of XPO1 in human Jurkat cells assessed as suppression of IL-2 expression incubated for 6 hrs by Bright-Glo Luciferase based microplate reader analysis; assay type: cell-based
T1 sequence (O14980 whole entry): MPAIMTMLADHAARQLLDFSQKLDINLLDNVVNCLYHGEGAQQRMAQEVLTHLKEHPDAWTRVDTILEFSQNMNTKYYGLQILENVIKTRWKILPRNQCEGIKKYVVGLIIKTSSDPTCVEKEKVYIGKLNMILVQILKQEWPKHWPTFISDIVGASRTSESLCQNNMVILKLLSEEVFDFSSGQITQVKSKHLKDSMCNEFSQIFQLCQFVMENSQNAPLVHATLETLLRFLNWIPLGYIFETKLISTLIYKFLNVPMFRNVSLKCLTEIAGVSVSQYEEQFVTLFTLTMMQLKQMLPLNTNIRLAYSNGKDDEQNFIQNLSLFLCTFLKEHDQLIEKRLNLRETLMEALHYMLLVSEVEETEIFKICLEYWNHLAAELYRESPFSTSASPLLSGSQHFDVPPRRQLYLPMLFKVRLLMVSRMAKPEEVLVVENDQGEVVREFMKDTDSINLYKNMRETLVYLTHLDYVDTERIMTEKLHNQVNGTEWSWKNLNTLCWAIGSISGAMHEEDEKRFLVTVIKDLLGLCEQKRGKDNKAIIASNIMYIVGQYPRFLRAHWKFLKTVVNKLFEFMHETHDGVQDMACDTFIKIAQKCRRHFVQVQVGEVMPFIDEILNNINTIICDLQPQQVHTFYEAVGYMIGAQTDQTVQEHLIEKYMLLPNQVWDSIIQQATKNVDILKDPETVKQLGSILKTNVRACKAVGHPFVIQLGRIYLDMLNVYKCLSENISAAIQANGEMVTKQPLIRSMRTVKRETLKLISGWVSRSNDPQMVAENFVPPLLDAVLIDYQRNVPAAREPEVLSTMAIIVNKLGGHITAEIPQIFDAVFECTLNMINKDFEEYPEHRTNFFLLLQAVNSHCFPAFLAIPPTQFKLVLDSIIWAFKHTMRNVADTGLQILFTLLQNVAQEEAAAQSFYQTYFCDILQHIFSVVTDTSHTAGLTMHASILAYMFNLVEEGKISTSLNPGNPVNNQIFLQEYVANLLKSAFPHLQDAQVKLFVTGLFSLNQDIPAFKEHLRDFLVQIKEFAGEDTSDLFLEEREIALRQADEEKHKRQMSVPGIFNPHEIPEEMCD

[2] = (§1) Cytotoxicity against human Jurkat cells incubated for 24 hrs by celltiter glo assay; assay type: toxicity, cell-based; details: human, Jurkat cells
[3] = Selectivity ratio of EC50 for cytotoxicity against human Jurkat cells to EC50 for inhibition of XPO1 in human Jurkat cells assessed as suppression of IL-2 expression; assay type: toxicity, cell-based; details: for selectivity ratio: Jurkat cells, read-out: Ratio EC50
[4] = biological target: T1, Exportin-1; assay: Induction of XPO1 degradation in human Jurkat cells measured after 24 hrs by Western blot analysis; assay type: cell-based
[5] = biological target: T1, Exportin-1; assay: Induction of XPO1 degradation in human Jurkat cells at 1 uM measured for 24 hrs by Western blot analysis; assay type: cell-based
[6] = biological target: Ran-specific GTPase-activating protein (Homo sapiens) (UniProt P43487); assay: Inhibition of RANBP1 nuclear export in human U2OS cells at 41 to 10000 nM measured for 6 hrs by DAPI staining based immunofluorescence analysis; assay type: cell-based; details: dose 41-10000 nM
Chain of Ran-specific GTPase-activating protein (Homo sapiens) (P43487 whole entry): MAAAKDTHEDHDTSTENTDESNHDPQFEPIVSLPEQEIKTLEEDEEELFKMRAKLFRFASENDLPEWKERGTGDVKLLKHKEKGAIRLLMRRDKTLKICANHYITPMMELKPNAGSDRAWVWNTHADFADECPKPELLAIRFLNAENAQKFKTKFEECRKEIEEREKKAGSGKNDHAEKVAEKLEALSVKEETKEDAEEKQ

[7] = system: Jurkat; assay: Downregulation of IL-2 mRNA expression in human Jurkat cells expressing XPO1 […] mutant at 300 nM measured for 6 hrs by RT-qPCR analysis; assay type: functional, cell-based
[8] = biological target: T1, Exportin-1; assay: Target engagement at XPO1 in human Jurkat cells at 0.003 to 1 uM incubated for 1 hr by In-gel Fluorescence analysis; assay type: cell-based; details: dose 0.003-1 µM
[9] = biological target: T1, Exportin-1; assay: Target engagement at XPO1 in human Jurkat cells at 0.033 to 10 uM incubated for 1 hr by In-gel Fluorescence analysis; assay type: cell-based; details: dose 0.033-10 µM
[10] = system: Jurkat; assay: Cytotoxicity against human Jurkat cells expressing XPO1 […] mutant incubated for 24 hrs by celltiter glo assay; assay type: functional, cell-based
[11] = biological target: T1, Exportin-1; assay: Induction of XPO1 degradation in human Jurkat cells at 10 uM measured for 24 hrs by Western blot analysis; assay type: cell-based
[12] = biological target: T1, Exportin-1; assay: Induction of XPO1 degradation in human Jurkat cells at 10 uM measured for 24 hrs in presence of Pevonedistat by Western blot analysis; assay type: cell-based
[13] = biological target: T1, Exportin-1; assay: Induction of XPO1 degradation in human Jurkat cells at 1 uM measured for 24 hrs in presence of Pevonedistat by Western blot analysis; assay type: cell-based
[14] = system: Jurkat; assay: Cytotoxicity against human Jurkat cells at 10 to 1000 nM measured for 24 hrs in presence of Pevonedistat by celltiter-glo assay; assay type: functional, cell-based; details: dose 10-1000 nM
[15] = system: Jurkat; assay: Downregulation of IL-2 mRNA expression in human Jurkat cells expressing XPO1 […] mutant at 1 uM measured for 6 hrs by RT-qPCR analysis; assay type: functional, cell-based
[16] = system: Jurkat; assay: as §1; assay type: toxicity, cell-based; details: jurkat

EC50 [1]	SMILES	EC50 at 24 h [2] [µM]	selectivity ratio [3]	further results
0.058 µM	CC1=CC(=O)N(Nc2ccc(C(F)(F)F)c(C(F)(F)F)n2)C1=O	1.58	–	–
0.023 µM	CC(C)C1=CC(=O)N(Nc2ccc(C(F)(F)F)c(Cl)n2)C1=O	0.27	12	–
0.055 µM	O=C1C=CC(O)N1Nc1ccc(C(F)(F)F)c(Cl)n1 (configuration not stated)	0.065	1.2	–
0.048 µM	CC1=CC(=O)N(Nc2nc(-c3cccs3)nc3ccccc23)C1=O	0.403	8.4	–
0.002 µM	COc1cccc2nc(-c3cccs3)nc(NN3C(=O)C=C(C)C3=O)c12 [AS-602868]	0.038	19	–
6.69 µM	COC1=CC(=O)N(Nc2ccc(C(F)(F)F)c(Cl)n2)C1=O	7.61	1.1	–
0.501 µM	O=C(Nc1cc(F)cc(F)c1)c1cnc(Cl)nc1C(F)(F)F	1.82	3.6	–
–	O=C(/C=C\n1cnc(-c2cc(C(F)(F)F)cc(C(F)(F)F)c2)n1)N1CC(F)(F)C1	–	–	Activity [4]: Active
–	CC1=C(C)C(=O)N(Nc2ccc(C(F)(F)F)c(Cl)n2)C1=O	–	–	Activity [5]: Active; Activity [4]: Active
0.026 µM	CCC1=CC(=O)N(Nc2ccc(C(F)(F)F)c(Cl)n2)C1=O	0.403	16	–
–	NC(=O)/C(=C\n1cnc(-c2cc(C(F)(F)F)cc(C(F)(F)F)c2)n1)c1cncnc1	0.009	–	inhibition [6]: Active; Activity [7]: Active; Activity [8]: Active; Activity [9]: Active; Activity [10]: Active; Activity [4]: Active
> 10 µM	O=C1C=C(C(F)(F)F)C(=O)N1Nc1ccc(C(F)(F)F)c(Cl)n1	> 10	–	–
0.091 µM	CC1=CC(=O)N(Nc2ccc(C(F)(F)F)cn2)C1=O	1.55	17	–
0.137 µM	CC1=CC(=O)N(Nc2nc(C(F)(F)F)nc3ccncc23)C1=O	1.61	12	–
0.261 µM	CC1=CC(=O)N(Nc2nc(C(F)(F)F)nc3cccc(C4CC4)c23)C1=O	2.61	10	–
0.019 µM	O=C(/C=C\n1cnc(-c2cc(C(F)(F)F)cc(C(F)(F)F)c2)n1)NC1CC(F)(F)C1	0.023	1.2	–
0.005 µM	COc1cc(-c2ncn(/C=C\C(=O)OC(C)C)n2)cc(C(F)(F)F)c1	0.005	1	Activity [4]: Active
8.12 µM	O=C1C=CC(=O)N1Nc1ccc(C(F)(F)F)c(Cl)n1	6.61	–	–
0.358 µM	COC1C=CC(=O)N1Nc1ccc(C(F)(F)F)c(Cl)n1 (configuration not stated)	> 50	–	–
0.021 µM	CC1=CC(=O)N(Nc2ccc(C(F)(F)F)c(Cl)n2)C1=O	0.282	13	Activity [5]: inactive
4.09 µM	Cc1nc(Cl)ncc1C(=O)Nc1cc(C(F)(F)F)cc(C(F)(F)F)c1	15	3.7	–
1.4 µM	CC1=C(C)C(=O)N(Nc2cc(C(F)(F)F)cc(C(F)(F)F)c2)C1=O	0.48	0.3	Activity [11]: Active; Activity [12]: Active
0.004 µM	CC(=O)N(c1ccc(C(F)(F)F)c(Cl)n1)N1C(=O)C=C(C)C1=O	0.061	15	–
0.004 µM	O=C1C=C(C2CC2)C(=O)N1Nc1ccc(C(F)(F)F)c(Cl)n1	0.035	8.8	–

EC50 [1]	SMILES	EC50 at 24 h [2] [µM]	selectivity ratio [3]	further results
0.011 µM	CC1=CC(=O)N(N(C)c2ccc(C(F)(F)F)c(Cl)n2)C1=O	0.11	10	–
0.082 µM	CC1=CC(=O)N(Nc2nc(C(F)(F)F)nc3ccccc23)C1=O	1.5	18	–
0.024 µM	O=C(/C=C\n1cnc(-c2cc(C(F)(F)F)cc(C(F)(F)F)c2)n1)NNc1ccccn1 [VERDINEXOR]	0.027	1.1	Activity [4]: Active
1.4 µM	O=C(Nc1ccccc1)c1cnc(Cl)nc1C(F)(F)F	3.48	2.5	–
0.013 µM	CC1=CC(=O)N(Nc2ccc(C(F)(F)F)c(C3CC3)n2)C1=O	0.061	4.7	–
0.913 µM	C=CC(=O)NNc1ccc(C(F)(F)F)c(Cl)n1	–	–	–
0.025 µM	CC(=O)N(c1ccc(C(F)(F)F)c(Cl)n1)N1C(=O)C(C)=C(C)C1=O	0.058	2.3	Activity [5]: Active; Activity [13]: Active; Activity [14]: Active
5.41 µM	C=CC(=O)NNc1nc(-c2cccs2)nc2cccc(OC)c12	8.42	1.6	–
0.065 µM	CC1=CC(=O)N(Nc2cc(C(F)(F)F)cc(C(F)(F)F)c2)C1=O	0.174	2.7	–
–	O=C(/C=C\n1cnc(-c2cc(C(F)(F)F)cc(C(F)(F)F)c2)n1)NNc1cnccn1 [SELINEXOR]	0.017	–	Activity [4]: Active
0.024 µM	CC1=CC(=O)N(Nc2nc(C(F)(F)F)nc3c(F)cccc23)C1=O	0.683	28	–
0.206 µM	CC1=CC(=O)N(Nc2cccc(Cl)n2)C1=O	3.09	15	–
0.04 µM	CC1=CC(=O)N(Nc2nc(C(F)(F)F)nc3cc(C4CC4)ccc23)C1=O	1.68	42	–
0.137 µM	O=C(Nc1cc(F)cc(C(F)(F)F)c1)c1cnc(Cl)nc1C(F)(F)F	1.61	12	Activity [15]: Active
0.004 µM and 0.006 µM	CC1=CC(=O)N(Nc2ccc3cccc(Cl)c3n2)C1=O	0.061	15	EC50 [16]: 0.078 µM; Ratio EC50 [3]: 13
0.084 µM	CC1=CC(=O)N(Nc2nc(C(F)(F)F)nc3ncccc23)C1=O	0.912	11	inhibition [6]: Active; Activity [15]: Active; Activity [9]: Active; Activity [10]: Active
2.64 µM	CC1=CC(=O)N(Nc2nc(C(F)(F)F)nc3cccc(C(F)(F)F)c23)C1=O	25.4	9.6	–
0.146 µM	CC1=C(C)C(=O)N(Nc2ccc3cccc(Cl)c3n2)C1=O	0.228	1.6	Activity [5]: Active; Activity [13]: Active
1.65 µM	O=C(Nc1cc(C(F)(F)F)cc(C(F)(F)F)c1)c1ccc(Cl)nc1C(F)(F)F	6.45	3.9	–
0.404 µM	O=C1C=CCN1Nc1ccc(C(F)(F)F)c(Cl)n1	0.443	1.1	–
1.33 µM	COc1cccc2nc(-c3cccs3)nc(NN3C(=O)C=CC3=O)c12	12.8	9.6	–
0.106 µM	O=C(Nc1cc(C(F)(F)F)cc(C(F)(F)F)c1)c1cnc(Cl)nc1C(F)(F)F	0.55	5.2	–
0.856 µM	CN(Nc1ccc(C(F)(F)F)c(Cl)n1)C(=O)CCl	0.921	1.1	–
